According to ChEMBL document CHEMBL1201862, “PubChem BioAssay data set” (2004):
Calls of active or inactive are those of the source.

Key:
[1] = target: T1, Calpain-2 catalytic subunit (Sus scrofa, UniProt P43367); experiment: pig calpain II inhibitor potency, dose response, biochemical, fluorogenic peptide substrate (AID 1420); assay type: functional
T1 sequence (P43367 whole entry): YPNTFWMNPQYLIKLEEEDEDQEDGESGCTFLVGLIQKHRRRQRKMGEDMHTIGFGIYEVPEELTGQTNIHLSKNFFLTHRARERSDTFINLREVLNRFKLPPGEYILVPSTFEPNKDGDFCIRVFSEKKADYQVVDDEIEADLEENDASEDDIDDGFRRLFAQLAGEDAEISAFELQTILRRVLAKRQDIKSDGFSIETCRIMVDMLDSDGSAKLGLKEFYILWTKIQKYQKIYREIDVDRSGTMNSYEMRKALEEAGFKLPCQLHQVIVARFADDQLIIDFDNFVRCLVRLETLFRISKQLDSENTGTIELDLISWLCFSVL

[2] = target: T2, Rac GTPase-activating protein 1 (Homo sapiens, UniProt Q9H0H5); experiment: MgcRacGAP GTPase-activating activity inhibitors, confirmation, biochemical, ADP Hunter fluorescence, primary and confirmatory (AID 624330); assay type: functional
T2 sequence (Q9H0H5 whole entry): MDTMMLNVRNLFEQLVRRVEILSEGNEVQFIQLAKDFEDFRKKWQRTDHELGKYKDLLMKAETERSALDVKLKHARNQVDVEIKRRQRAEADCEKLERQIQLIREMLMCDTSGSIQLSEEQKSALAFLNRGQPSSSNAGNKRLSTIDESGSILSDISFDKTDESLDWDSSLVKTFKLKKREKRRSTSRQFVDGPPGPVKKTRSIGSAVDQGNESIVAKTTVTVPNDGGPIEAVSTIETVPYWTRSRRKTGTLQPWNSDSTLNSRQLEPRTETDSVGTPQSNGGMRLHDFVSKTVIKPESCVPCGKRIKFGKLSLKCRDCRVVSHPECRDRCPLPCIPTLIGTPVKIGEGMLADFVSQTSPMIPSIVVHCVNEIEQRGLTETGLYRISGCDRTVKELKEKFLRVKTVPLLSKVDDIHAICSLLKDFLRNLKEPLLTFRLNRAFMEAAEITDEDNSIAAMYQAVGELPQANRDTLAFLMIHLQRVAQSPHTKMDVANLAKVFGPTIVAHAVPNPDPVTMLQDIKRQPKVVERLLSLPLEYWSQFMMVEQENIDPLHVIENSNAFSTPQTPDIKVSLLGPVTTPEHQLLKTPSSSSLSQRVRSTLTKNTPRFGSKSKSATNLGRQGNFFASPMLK

[3] = target: T3, Ubiquitin-conjugating enzyme E2 N (Homo sapiens, UniProt P61088); assay type: functional;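 further: Dose-response confirmation in a TR-FRET assay detecting UBC13-driven polyubiquitin chain formation, inhibition measured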
T3 sequence (P61088 whole entry): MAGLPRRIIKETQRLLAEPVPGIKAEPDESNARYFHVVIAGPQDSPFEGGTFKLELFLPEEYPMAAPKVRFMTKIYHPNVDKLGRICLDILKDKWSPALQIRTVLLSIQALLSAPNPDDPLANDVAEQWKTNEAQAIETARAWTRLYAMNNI

[4] = target: T4, RNA-binding protein pos-1 (Caenorhabditis elegans, UniProt G5EF15); experiment: inhibitors of POS-1/mex-3 RNA binding, dose response, biochemical, fluorescence polarization (AID 1964);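 further: purified POS-1 fused to maltose binding protein made in E. coli; potency of compounds blocking POS-1 binding to fluorescent RNA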
T4 sequence (G5EF15 whole entry): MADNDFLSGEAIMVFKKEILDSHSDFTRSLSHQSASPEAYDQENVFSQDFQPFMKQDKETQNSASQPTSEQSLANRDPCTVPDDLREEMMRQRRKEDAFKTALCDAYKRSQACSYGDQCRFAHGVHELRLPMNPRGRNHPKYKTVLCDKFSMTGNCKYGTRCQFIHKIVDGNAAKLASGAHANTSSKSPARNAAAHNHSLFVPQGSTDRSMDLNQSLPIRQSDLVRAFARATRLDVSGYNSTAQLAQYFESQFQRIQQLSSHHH

[5] = target: T5, Zinc finger protein mex-5 (Caenorhabditis elegans, UniProt Q9XUB2); experiment: MEX-5/TCR-2 RNA interaction inhibitors, dose response, biochemical, C. elegans, fluorescence polarization (AID 1960)
T5 sequence (Q9XUB2 whole entry): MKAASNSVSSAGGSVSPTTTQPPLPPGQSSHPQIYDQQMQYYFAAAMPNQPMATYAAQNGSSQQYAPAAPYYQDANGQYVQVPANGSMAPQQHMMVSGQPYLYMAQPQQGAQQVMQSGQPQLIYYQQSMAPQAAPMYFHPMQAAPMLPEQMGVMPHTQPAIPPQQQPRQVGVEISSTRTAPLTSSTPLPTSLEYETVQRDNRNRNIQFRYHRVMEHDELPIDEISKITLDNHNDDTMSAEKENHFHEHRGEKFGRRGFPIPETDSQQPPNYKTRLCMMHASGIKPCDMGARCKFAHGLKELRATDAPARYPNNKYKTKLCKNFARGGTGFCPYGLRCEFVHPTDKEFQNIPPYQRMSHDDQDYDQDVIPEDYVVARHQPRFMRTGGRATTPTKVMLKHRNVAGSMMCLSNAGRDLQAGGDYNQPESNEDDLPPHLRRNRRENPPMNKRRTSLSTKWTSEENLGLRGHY

[6] = inhibitors of firefly luciferase expression or activity, dose response, H4 neuroglioma cells, luminescence (AID 1990); assay type: functional, cell-based
[7] = Luminescence Cell-Based Dose Response HTS to Identify Inhibitors of 5'UTR Stem-Loop Driven Prion Protein mRNA Translation in H4 Neuroglioblastoma Cells. [Related pubchem assays: 1827 (Project Summary), 1813 (Primary HTS)]; assay type: functional
[8] = inhibitors of SNCA 5'UTR-driven reporter translation, confirmation, H4 neuroglioma cells, luminescence (AID 1988); assay type: functional, cell-based
[9] = target: T6, Replicative DNA helicase DnaB (Mycobacterium tuberculosis, UniProt P9WMR3); experiment: DnaB intein splicing inhibitors, dose response, biochemical, cell-free fluorescence (AID 449749); assay type: functional
T6 sequence (P9WMR3 whole entry): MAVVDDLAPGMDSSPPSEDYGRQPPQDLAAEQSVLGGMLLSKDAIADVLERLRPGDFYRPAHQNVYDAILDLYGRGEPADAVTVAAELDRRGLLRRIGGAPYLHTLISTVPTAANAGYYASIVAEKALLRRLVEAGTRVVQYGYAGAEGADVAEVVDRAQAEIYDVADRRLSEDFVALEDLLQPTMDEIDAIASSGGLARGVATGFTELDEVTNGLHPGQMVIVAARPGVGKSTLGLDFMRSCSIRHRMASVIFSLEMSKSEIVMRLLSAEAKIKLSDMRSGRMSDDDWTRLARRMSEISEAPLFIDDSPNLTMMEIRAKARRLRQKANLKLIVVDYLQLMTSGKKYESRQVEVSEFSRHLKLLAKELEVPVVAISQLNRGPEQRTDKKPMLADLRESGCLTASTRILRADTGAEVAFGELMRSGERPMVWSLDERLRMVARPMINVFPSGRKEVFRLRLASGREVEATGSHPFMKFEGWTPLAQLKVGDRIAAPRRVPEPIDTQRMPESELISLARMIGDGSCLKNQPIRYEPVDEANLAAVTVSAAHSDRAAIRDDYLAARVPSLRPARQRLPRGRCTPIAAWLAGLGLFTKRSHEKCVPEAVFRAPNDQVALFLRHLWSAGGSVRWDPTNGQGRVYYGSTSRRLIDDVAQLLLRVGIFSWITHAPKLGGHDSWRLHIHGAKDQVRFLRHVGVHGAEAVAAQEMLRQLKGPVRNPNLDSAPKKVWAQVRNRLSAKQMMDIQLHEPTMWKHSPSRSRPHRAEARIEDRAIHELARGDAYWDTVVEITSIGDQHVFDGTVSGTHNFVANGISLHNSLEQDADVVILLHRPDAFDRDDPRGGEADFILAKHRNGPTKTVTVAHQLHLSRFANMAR

Protein RecA = target: T7, Protein RecA (Mycobacterium tuberculosis, UniProt P9WHJ3); experiment: Fluorescence Cell-Free Homogeneous Dose Retest to Identify Inhibitors of RecA-Intein Splicing Activity. [Related pubchem assays (depositor defined):AID2097, AID2223, AID489010, AID492950]; assay type: functional
T7 sequence (P9WHJ3 whole entry): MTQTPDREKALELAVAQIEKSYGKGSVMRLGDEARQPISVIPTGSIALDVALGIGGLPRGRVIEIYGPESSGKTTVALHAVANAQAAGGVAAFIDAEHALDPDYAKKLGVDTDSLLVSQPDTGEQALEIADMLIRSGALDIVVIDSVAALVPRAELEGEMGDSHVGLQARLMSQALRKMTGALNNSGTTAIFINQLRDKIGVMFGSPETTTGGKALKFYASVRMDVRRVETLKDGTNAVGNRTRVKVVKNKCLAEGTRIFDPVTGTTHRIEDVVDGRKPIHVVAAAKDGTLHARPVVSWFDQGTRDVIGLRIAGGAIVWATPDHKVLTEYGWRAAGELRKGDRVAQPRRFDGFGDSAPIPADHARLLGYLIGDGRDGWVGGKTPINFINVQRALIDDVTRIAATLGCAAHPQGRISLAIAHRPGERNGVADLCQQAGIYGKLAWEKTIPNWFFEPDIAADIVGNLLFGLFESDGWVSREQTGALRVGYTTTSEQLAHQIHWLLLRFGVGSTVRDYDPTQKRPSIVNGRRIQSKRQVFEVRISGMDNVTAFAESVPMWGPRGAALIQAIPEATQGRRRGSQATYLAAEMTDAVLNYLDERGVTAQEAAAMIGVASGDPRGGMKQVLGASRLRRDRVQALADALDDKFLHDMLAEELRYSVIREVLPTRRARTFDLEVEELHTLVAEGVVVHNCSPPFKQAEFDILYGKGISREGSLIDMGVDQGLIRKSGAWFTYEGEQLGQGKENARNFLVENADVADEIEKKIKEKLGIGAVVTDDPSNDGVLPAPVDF

[10] = system: Streptococcus sp. 'group A'; experiment: growth inhibition of control SK(-) GAS strain, dose response, counter-screen for streptokinase expression inhibitor project, luminescence, kanamycin, BacTiterGlo, confirmation (AID 1900); assay type: functional, organism-based
Streptokinase A = target: T8, Streptokinase A (Streptococcus pyogenes serotype M1, UniProt P10520); experiment: S. pyogenes streptokinase expression inhibitors, potency, dose response, plasminogen activation absorbance, OD405 (AID 1914); assay type: functional, Streptococcus pyogenes M1 GAS;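 further: secreted streptokinase activity via plasminogen activation per viability signal from cell pellet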
T8 sequence (P10520 whole entry): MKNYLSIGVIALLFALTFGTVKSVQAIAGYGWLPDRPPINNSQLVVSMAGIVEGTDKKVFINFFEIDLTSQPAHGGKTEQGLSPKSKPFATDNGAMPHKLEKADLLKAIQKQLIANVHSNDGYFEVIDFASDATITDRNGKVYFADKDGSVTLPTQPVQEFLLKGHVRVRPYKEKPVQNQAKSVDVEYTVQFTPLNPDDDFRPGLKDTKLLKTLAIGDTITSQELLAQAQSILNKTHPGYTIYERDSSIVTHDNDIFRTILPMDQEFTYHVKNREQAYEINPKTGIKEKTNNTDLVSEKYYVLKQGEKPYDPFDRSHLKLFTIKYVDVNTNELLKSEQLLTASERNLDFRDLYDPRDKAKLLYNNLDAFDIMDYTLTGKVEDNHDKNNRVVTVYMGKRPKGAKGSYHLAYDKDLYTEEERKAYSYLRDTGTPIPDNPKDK

Streptococcus = experiment: Group A Streptococcus viability loss, dose response, counter-screen for streptokinase expression inhibitor project, luminescence, BacTiterGlo (AID 1915); assay type: functional, organism-based;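 further: potency for reduction of bacterial viability or growth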

## COc1cccc(CNC(=O)CN=C(S)N(Cc2ccccc2)Cc2ccccc2F)c1
[1]
  IC50: 6.84 µM (not active)

## Cc1cc(O)ccc1NC(=O)c1ccccc1
[2]
  IC50: 69.1 µM (active)

## O=C(CSc1nc2ccccc2c(=O)n1-c1ccccc1)N1CCc2ccccc21
[1]
  IC50: 16.7 µM (not active)

## CCC(=O)Nc1ccc(Cl)c(NC(=S)NC(=O)c2cc3ccccc3o2)c1
[1]
  IC50: 25.7 µM (not active)

## Cc1nn2c(nc(N3CCOCC3)c3ccccc32)c1C=C(C#N)C#N
[3]
  IC50: > 20 µM (inactive)

## CCOC(=O)C1CCN(c2c([N+](=O)[O-])c(C(Cl)Cl)nn2-c2ccccc2)CC1
[1]
  IC50: 8.97 µM (not active)

## Nc1ccc2nc(S)sc2c1
[2]
  IC50: 30.4 µM (active)

## CCN(CC)C(=O)Cn1cc(/C=C2\C(=O)NC(=O)N(c3ccccc3F)C2=O)c2ccccc21
[4]
  EC50: > 300 µM (not active)
[5]
  EC50: > 300 µM (not active)

## Cc1ccc2cc(C#N)c(SCC(=O)NNC(=O)Cc3ccccc3)nc2c1
[1]
  IC50: 23.7 µM (not active)

## CC1CC=C2C(C#N)=C(N)C(C#N)(C#N)C(c3cccs3)C2C1 (stereo not drawn)
[4]
  EC50: 21.7 µM (active)
[5]
  EC50: 14.9 µM (active)

## C[C@@H](CN1C2=NC[C@H](Cc3ccccc3)N2C[C@H]1Cc1ccc(O)cc1)NC(=O)CCC1CCCCC1
[3]
  IC50: > 20 µM (inactive)

## O=C(Nc1ccc2c(c1)OCO2)c1c(F)c(F)c(F)c(F)c1F
[1]
  IC50: > 50 µM (not active)

## Cc1ccc(Cl)cc1N(Cc1ccc(C(=O)NCc2cccnc2)cc1)S(=O)(=O)c1ccccc1
[1]
  IC50: 7.55 µM (not active)

## COc1ccccc1NC(=O)COC(=O)c1cc(C)nc2ccccc12
[3]
  IC50: > 20 µM (inactive)

## Cc1ccc(-c2nn(-c3ccccc3)cc2CNCc2ccccc2)cc1
[1]
  IC50: > 50 µM (not active)

## Cc1cc(C)n(CCC(=O)N/N=C/c2ccc(O)cc2)n1
[2]
  IC50: 77.2 µM (active)

## CCCCOc1ccc(C(=O)NNC(=O)c2cnccn2)cc1OC
[3]
  IC50: > 20 µM (inactive)

## CC(=O)N1CCN(c2ccc(NCc3cccs3)cc2)CC1
[2]
  IC50: 14.1 µM (active)

## N=c1c(S(=O)(=O)c2ccc(Cl)cc2)cc2c(=O)n3ccccc3nc2n1C1CCCCC1
[6]
  EC50: 83.2 µM (active)
[4]
  EC50: 82.7 µM (inconclusive)
[7]
  EC50: 14.1 µM (active)
[5]
  EC50: 125 µM (active)
[8]
  EC50: > 120 µM (not active)

## CCOc1cc(C(c2c(C)[nH][nH]c2=O)c2c(C)[nH][nH]c2=O)cc([N+](=O)[O-])c1O
[4]
  EC50: 16.3 µM (active)
[5]
  EC50: 2.07 µM (active)
[9]
  AC50: 0.299 µM (active)
Protein RecA
  EC50: 0.219 µM (active)

## COc1cccc(/C=C(/C(=O)OCC(=O)NC2CCCC(C)C2C)c2ccccc2)c1 (stereo not drawn)
[10]
  EC50: 6.28 µM (active)
Streptokinase A
  EC50: 6.84 µM (active)
[1]
  IC50: 11.6 µM (not active)
Streptococcus
  EC50: 17.3 µM (active)
